Experimental data reported in patent US20140045805A1, “Fragrance Compositions and Other Compositions Which Contain Naturally Occurring Substances Found in Corals” (priority 2007, published 2014).

System: healthy volunteers (men and women)
Assay: Physiologic parameters (electrophysiology) after nasal exposure
Assay type: in vivo, human
Design: Mean MA, BT (body temperature) / Mean MA, EMG (electromyogram) / Mean MA, BR (blinking reflex) / Mean MA, EEG-A (alpha cortical activity) / Mean MA, EEG-B (beta cortical activity) / Mean MA, EEG-T (theta cortical activity) / Mean MA, EDA (electrodermal activity): unit not given here
Conditions: for Mean MA, BR (blinking reflex) / Mean MA, BT (body temperature) / Mean MA, EDA (electrodermal activity) / Mean MA, EEG-A (alpha cortical activity) / Mean MA, EEG-B (beta cortical activity) / Mean MA, EEG-T (theta cortical activity) / Mean MA, EMG (electromyogram) / Mean MA, HR (heart rate) / Mean MA, RR (respiration rate): 12 ng/20 min airborne nasal; for % Change MA, BR (blinking reflex) / % Change MA, EDA (electrodermal activity) / % Change MA, EEG-A (alpha cortical activity) / % Change MA, EEG-B (beta cortical activity) / % Change MA, EEG-T (theta cortical activity) / % Change MA, EMG (electromyogram) / % Change MA, HR (heart rate) / % Change MA, RR (respiration rate): 12 ng, vs baseline-2
Procedure: We assessed the resulting physiological responses and behavioral changes induced by nasal exposure to 12 ng pregna-5,20-dien-3β-ol in 76 volunteers (38 women and 38 men), age 18 to 46 (Table 1) using a placebo-controlled, single blind and crossover study design. The items of the modified DABS-70 were rearranged during consecutive administrations, in order to minimize the effect of learning.
Upon completion of the first DABS-70, each subject was invited to rest supine in a comfortable medical bed in a quiet room and several non-invasive electrode leads and transducers were positioned on the surface skin of the arms, face and skull to help measure physiologic parameters (FIG. 4). A conventional grounding electrode and a reference electrode lead were positioned on the surface skin of the mastoid process and the right ear lobe respectively, with the aid of hypoallergenic conductive paste. Other non-invasive standard electrode-leads and transducers were used for recording the following physiologic parameters: • Electrocardiogram (EKG), standard bipolar I. • Electropneumogram (EPG), strain gauge around lower thorax. • Electrodermal activity (EDA), palm surface of 3rd and 4th finger (right hand). • Blinking reflex (BR), upper and lower left eye-lid. • Electromyogram (EMG), bilaterally in chin area. • Body temperature (BT), mini-thermistor probe in external ear canal. • Electroencephalogram (EEG), CzA2 and T4A2 from the […] International EEG electrode placement chart.
During the course of a recording session, physiologic readings were performed in four consecutive instances, before and after randomized administration of active substance or control (FIG. 4): PHYS-1 recording, starting 5 minutes before the first randomized dosing; PHYS-2, starting 15 minutes after administration of the first randomized dosing; PHYS-3, starting 5 minutes before administration of the second randomized dosing; and PHYS-4 starting 15 minutes after administration of the second randomized dosing.
All physiological recordings were pre-amplified and digitized (Biopac Systems), and continuously computer monitored and stored (Macintosh G3), for further off-line processing and analysis (for a detailed explanation see Monti-Bloch et al, 1994, 1998).
Active substance (pregna-5,20-dien-3β-ol) and control were freshly prepared on 0.7 cm×10 cm perfumery grade smelling strips 24 hours before the experiment. A perfumery grade smelling strip was positioned on the upper lip of the subject for delivery of control or active substance to the nasal passages for a period of 20 minutes. Each breath carried vapors of pregna-5,20-dien-3β-ol or control (air) from the paper strip to the nasal passages.
Perfumery grade smelling strips containing either pregna-5,20-dien-3β-ol or control were prepared as follows: 100 μl of stock solution containing 100 mg pregna-5,20-dien-3β-ol/10 mL ethanol (95%) was added to a clean paper strip. Ethanol was allowed to evaporate overnight in a clean fume hood, and 1 mg of dry crystals of pregna-5,20-dien-3β-ol remained embedded in the dried perfumery grade smelling strip. Control was a perfumery grade smelling strip prepared following the same procedure but the solution was devoid of active substance.
The following assumptions were used to calculate the quantity of pregna-5,20-dien-3β-ol delivered to the nasal passages during a study session: a) the quantity of pregna-5,20-dien-3β-ol arriving to the nasal passages with each breath is ≈40 pg (determined as described below); b) the average respiratory rate at rest in men and women is ≈15 breaths per minute; and c) the subject was exposed to pregna-5,20-dien-3β-ol for 20 min during the entire study session. The total calculated quantity of pregna-5,20-dien-3β-ol delivered to the nasal passages over 20 min (exposure during the study session) was calculated as follows: 40 pg/breath×15 breaths/min×20 min=12000 pg=12 ng. […]

[1] = men, listed as Pregna-5,20-dien-3β-ol
[2] = women, listed as Pregna-5,20-dien-3β-ol

C=C[C@H]1CC[C@H]2[C@@H]3CC=C4C[C@@H](O)CC[C@]4(C)[C@H]3CC[C@]12C [pregna-5,20-dien-3β-ol, Pregna-5,20-dien-3β-ol]
Mean MA, BR (blinking reflex) (men): 25.970
Mean MA, BT (body temperature) (men): −0.011
Mean MA, EDA (electrodermal activity) (men): 3.467
Mean MA, EEG-A (alpha cortical activity) (men): 29.613
Mean MA, EEG-B (beta cortical activity) (men): 57.853
Mean MA, EEG-T (theta cortical activity) (men): 17.630
Mean MA, EMG (electromyogram) (men): 20.067
Mean MA, HR (heart rate) (men): 66.323
Mean MA, RR (respiration rate) (men): 13.133
% Change MA, BR (blinking reflex) (men): −22.392%
% Change MA, EDA (electrodermal activity) (men): 44.458%
% Change MA, EEG-A (alpha cortical activity) (men): 2.798%
% Change MA, EEG-B (beta cortical activity) (men): −13.691%
% Change MA, EEG-T (theta cortical activity) (men): 14.036%
% Change MA, EMG (electromyogram) (men): 64.524%
% Change MA, HR (heart rate) (men): −2.609%
% Change MA, RR (respiration rate) (men): −19.097%
% Change MA, EEG-A (alpha cortical activity) [1]: did not have a significant effect
% Change MA, EEG-B (beta cortical activity) [1]: did not have a significant effect
% Change MA, HR (heart rate) [1]: −2.6%
Mean MA, BR (blinking reflex) (women): 28.483
Mean MA, BT (body temperature) (women): 0.064
Mean MA, EDA (electrodermal activity) (women): 3.379
Mean MA, EEG-A (alpha cortical activity) (women): 27.724
Mean MA, EEG-B (beta cortical activity) (women): 61.069
Mean MA, EEG-T (theta cortical activity) (women): 17.897
Mean MA, EMG (electromyogram) (women): 25.276
Mean MA, HR (heart rate) (women): 64.828
Mean MA, RR (respiration rate) (women): 13.379
% Change MA, BR (blinking reflex) (women): −31.859%
% Change MA, EDA (electrodermal activity) (women): 71.784%
% Change MA, EEG-A (alpha cortical activity) (women): −14.871%
% Change MA, EEG-B (beta cortical activity) (women): −1.023%
% Change MA, EEG-T (theta cortical activity) (women): 24.001%
% Change MA, EMG (electromyogram) (women): 55.545%
% Change MA, HR (heart rate) (women): −3.000%
% Change MA, RR (respiration rate) (women): −16.030%
% Change MA, EEG-A (alpha cortical activity) [2]: did not have a significant effect
% Change MA, EEG-B (beta cortical activity) [2]: did not have a significant effect
% Change MA, HR (heart rate) [2]: −3.0%
% Change MA, RR (respiration rate) [2]: −16.03%
